Reference: patent US7144893B2, “4-aryl quinols and analogs thereof as therapeutic agents” (Cancer Research Technology Limited, priority 2001, dated 2006)
Values after ≈ are worked out from the molar mass of the structure shown.

What was measured:
[1] = test system: 60 human cancer cell lines; experiment: cells; format: cell-based; settings: Homo sapiens; for CC50: 48 h, read-out: mean LC50
Description: (§1) Compounds were tested for in vitro activity (48 h drug exposure) across 60 human cancer cell lines through the National Cancer Institute (NCI) Developmental Therapies Screening Program (Boyd et al., 1995).

colon sub-panel = experiment: cells; format: cell-based; settings: Homo sapiens, SW-620, read-out: mean LC50 in colon sub-panel
Description: as §1

renal sub-panel = experiment: cells; format: cell-based; settings: Homo sapiens, 60 cell, read-out: mean LC50 in renal sub-panel
Description: as §1

[2] = test system: Mycobacterium tuberculosis H37Rv (ATCC 27294); experiment: Microplate Alamar Blue Assay (MABA), TAACF primary screening; format: cell-based; settings: lowest concentration effecting a reduction in fluorescence of 90% relative to controls
Description: Compounds were submitted to the Tuberculosis Antimicrobial Acquisition and Coordinating Facility (TAACF) for testing as antimycobacterial drugs.
Compounds were subjected to in vitro evaluation for antimycobacterial activity.
See, for example, Collins et al., 1997.

HCT 116 colon carcinoma = experiment: Growth inhibitory assay (MTT, 72 hr); format: cell-based; settings: Homo sapiens, 72 hr exposure
Description: (§2) Compounds were prepared as 10 mM top stocks, dissolved in DMSO, and stored at 4° C., protected from light, for a maximum period of 4 weeks. Human derived cell lines (HCT 116, HT29 colon carcinoma; MCF-7 (ER+), MDA 468 (ER−) breast carcinoma; A549 lung adenocarcinoma) were routinely cultivated at 37° C. in an atmosphere of 5% CO2 in RPMI 1640 medium supplemented with 2 mM L-glutamine and 10% fetal calf serum and subcultured twice weekly to maintain continuous logarithmic growth. Cells were seeded into 96-well microtiter plates at a density of 5×10^3 per well and allowed 24 hr to adhere before drugs were introduced (final concentration 0.1 nM–100 μM, n=8). Serial drug dilutions were prepared in medium immediately prior to each assay. At the time of drug addition and following 72 hr exposure, MTT was added to each well (final concentration 400 µg/mL). Incubation at 37° C. for 4 hr allowed reduction of MTT by mitochondrial dehydrogenase to an insoluble formazan product. Well contents were aspirated and formazan solubilized by addition of DMSO:glycine buffer (pH 10.5) (4:1). Absorbance was measured using an Anthos Labtec systems plate reader at 550 nm, and used as a measure of cell viability; thus cell growth or drug toxicity was determined.

HT29 colon carcinoma = experiment: Growth inhibitory assay (MTT, 72 hr); format: cell-based; settings: Homo sapiens, HT-29, 72 hr exposure
Description: as §2

A549 lung adenocarcinoma = experiment: Growth inhibitory assay (MTT, 72 hr); format: cell-based; settings: Homo sapiens, 72 hr exposure
Description: as §2

[3] = test system: MCF-7 (ER+) breast carcinoma; experiment: Growth inhibitory assay (MTT, 72 hr); format: cell-based; settings: Homo sapiens, MCF7, 72 hr exposure
Description: as §2

[4] = test system: MDA 468 (ER−) breast carcinoma; experiment: Growth inhibitory assay (MTT, 72 hr); format: cell-based; settings: Homo sapiens, 72 hr exposure
Description: as §2

[5] = mean over NCI 60 cell panel, 48 h drug exposure

melting point [°C]	SMILES	CC50 ([1]; 60 cell) [µM]	GI50 [1, 5] [µM]	LC50 (colon sub-panel) [µM]	mean LC50 (renal sub-panel) [µM]	MIC [2] [µg/mL]	IC50 (HCT 116 colon carcinoma) [µM]	IC50 (HT29 colon carcinoma) [µM]	GI50 ([1]; 60 cell, Table 5) [µM]	IC50 (A549 lung adenocarcinoma) [µM]	IC50 [3] [µM]	IC50 [4] [µM]
–	O=C1C=CC(O)(c2cc3ccccc3o2)c2ccccc21 (centres unmarked) [Q47, 4-(Benzofuran-2-yl)-4-hydroxy-4H-naphth-1-one]	7.76	0.74	7.76	6.48	–	–	–	–	–	–	–
–	O=C1CC(Sc2ccccc2)C(O)(c2nc3ccccc3s2)C(Sc2ccccc2)C1 (centres unmarked) [Q25]	–	0.59	–	–	1.56 (≈ 3.36 µM)	–	–	–	–	–	–
–	CC1=CC(O)(c2nc3ccccc3s2)C=C(C)C1=O [Q44, 4-(benzothiazol-2-yl)-4-hydroxy-2,6-dimethylcyclohexa-2,5-dien-1-one]	> 100	38.2	> 100	> 100	–	–	–	–	–	–	–
–	O=C1/C(=C\c2ccccc2)CC(O)(c2nc3ccccc3s2)C/C1=C/c1ccccc1 (centres unmarked) [Q45, 4-(benzothiazol-2-yl)-2,6-bis(phenylmethinyl)-4-hydroxycyclohexanone]	47.9	2.69	17.4	37.2	–	–	–	–	–	–	–
–	CC(=O)OC1(c2ccccc2)C=CC(=O)C=C1 [Q21, 4-acetoxy-4-phenyl-2,5-cyclohexadien-1-one]	–	4.79	–	–	–	–	–	–	–	–	–
–	COC1(c2nc3ccccc3s2)C=CC(=NS(=O)(=O)c2ccc(C)cc2)C=C1 (centres unmarked) [Q29, N-[4-methoxy-4-(benzothiazol-2-yl)cyclohexa-2,5-dienylidene]-4-methylbenzenesulphonamide]	83.2	15.5	> 100	> 100	–	–	–	–	–	–	–
–	O=C1C=CC(O)(c2nc3ccccc3s2)C(Cl)=C1 (centres unmarked) [Q06, 4-(Benzothiazol-2-yl)-3-chloro-4-hydroxy-2,5-cyclohexadien-1-one]	6.31	0.46	2.31	1.8	–	14.9	26.3	–	–	–	–
–	O=C1C=CC(O)(c2cc3ccccc3s2)C=C1 [Q02, 4-(Benzothiophen-2-yl)-4-hydroxy-2,5-cyclohexadien-1-one]	5.75	0.25	1.69	1.4	–	0.169	0.552	0.55	2.43	–	–
–	O=C1C=CC(O)(c2cccs2)C=C1 [Q13, 4-(Thiophen-2-yl)-4-hydroxy-2,5-cyclohexadien-1-one]	30.9	1.78	32.5	14.4	6.25 (≈ 32.5 µM)	0.663	1.25	–	–	0.569	0.719
–	O=C1CC(SCc2ccccc2)C(O)(c2ccccc2)C(SCc2ccccc2)C1 (centres unmarked) [Q24, 4-Hydroxy-4-phenyl-3,5-di[(phenyl)methylthio]-cyclohexan-1-one]	–	3.98	–	–	–	–	–	–	–	–	–
–	CCSC1CC(=O)CC(SCC)C1(O)c1ccccc1 (centres unmarked) [Q22, 3,5-Di(ethylthio)-4-hydroxy-4-phenylcyclohexan-1-one]	–	12.6	–	–	–	–	–	–	–	–	–
–	O=C1C=CC(O)(c2cc3ccccc3s2)c2ccccc21 (centres unmarked) [Q46, 4-Benzothiophen-2-yl-4-hydroxy-4H-naphth-1-one]	70.8	2.29	> 100	> 100	–	–	–	–	–	–	–
–	NC(CCC(=O)NC(CSC1CC(=O)C=CC1(O)c1nc2ccccc2s1)C(=O)NCC(=O)O)C(=O)O (centres unmarked) [Q28, 4-Benzothiazol-2-yl-5-S-glutathionyl-4-hydroxy-cyclohex-2-enone]	–	2.19	–	–	–	–	–	–	–	–	–
–	COC1(c2nc3ccc(C)cc3s2)C=CC(=NS(=O)(=O)c2ccc(C)cc2)C=C1 (centres unmarked) [Q30, N-[4-methoxy-4-(6-methylbenzothiazol-2-yl)cyclohexa-2,5-dienylidene]4-methylbenzenesulphonamide]	19.5	1.2	9.92	10.6	–	–	–	–	–	–	–
–	COC1(c2nc3ccc(F)cc3s2)C=CC(=NS(=O)(=O)c2ccc(C)cc2)C=C1 (centres unmarked) [Q32, N-[4-methoxy-4-(6-fluorobenzothiazol-2-yl)cyclohexa-2,5-dienylidene]-4-methylbenzenesulphonamide]	30.2	1.74	25.6	19.1	–	–	–	–	–	–	–
137	COc1ccc(C(=O)OC2(c3nc4ccccc4s3)C=CC(=O)C=C2)cc1 [Q35, 4-(para-methoxybenzoyloxy)-4-(benzothiazol-2-yl)-2,5-cyclohexadien-1-one]	–	–	–	–	–	–	–	–	–	–	–
–	COC1(c2ccccc2)C=CC(=O)C=C1 [Q16, 4-Methoxy-4-phenyl-2,5-cyclohexadien-1-one]	–	25.4	–	–	–	–	–	–	–	–	–
–	COC1(c2nc3c(F)cccc3s2)C=CC(=NS(=O)(=O)c2ccc(C)cc2)C=C1 (centres unmarked) [Q33, N-[4-methoxy-4-(4-fluorobenzothiazol-2-yl)cyclohexa-2,5-dienylidene]-4-methylbenzenesulphonamide]	27.5	2.57	26.9	14.4	–	–	–	–	–	–	–
138	O=C1C=CC(OC(=O)c2ccc([N+](=O)[O-])cc2)(c2nc3ccccc3s2)C=C1 [Q34, 4-(para-nitrobenzoyloxy)-4-(benzothiazol-2-yl)-2,5-cyclohexadien-1-one]	–	–	–	–	–	–	–	–	–	–	–
–	O=C1CC(Sc2ccccc2)C(O)(c2ccccc2)C(Sc2ccccc2)C1 (centres unmarked) [Q23, 4-Hydroxy-4-phenyl-3,5-di(phenylthio)-cyclohexan-1-one]	–	1.82	–	–	–	–	–	–	–	–	–
–	COc1ccc2nc(C3(OC)C=CC(=NS(=O)(=O)c4ccc(C)cc4)C=C3)sc2c1 (centres unmarked) [Q31, N-[4-methoxy-4-(6-methoxybenzothiazol-2-yl)cyclohexa-2,5-dienylidene]-4-methylbenzenesulphonamide]	18.6	1.91	13.2	11.2	–	–	–	–	–	–	–
–	O=C1C=CC(O)(c2ccc3ccccc3c2)C=C1 [Q08, 4-(Naphth-2-yl)-4-hydroxy-2,5-cyclohexadien-1-one]	11.7	0.81	6.58	4.68	–	0.82	2.5	–	–	1.3	1.4
–	O=C1C=CC(O)(c2ccccn2)C=C1 [Q12, 4-(Pyridin-2-yl)-4-hydroxy-2,5-cyclohexadien-1-one]	20.4	1.91	6.9	11.3	6.25 (≈ 33.4 µM)	0.547	0.46	–	–	0.72	1.5
–	O=C1CCC(O)(c2nc3ccccc3s2)CC1 [Q43, 4-(Benzothiazol-2-yl)-4-hydroxycyclohexanone]	> 100	> 100	> 100	> 100	–	–	–	–	–	–	–
–	O=C1C=CC(O)(c2cccc3ccccc23)C=C1 [Q09, 4-(Naphth-1-yl)-4-hydroxy-2,5-cyclohexadien-1-one]	25.7	1.82	12.2	17	–	0.42	1.36	–	–	0.78	1.77
59	CCOC1(c2nc3ccccc3s2)C=CC(=O)C=C1 [Q18, 4-(Benzothiazol-2-yl)-4-ethoxy-2,5-cyclohexadien-1-one]	–	–	–	–	–	–	–	–	–	–	–
–	O=C1C=CC(O)(c2ccccc2)C=C1 [Q11, 4-Phenyl-4-hydroxy-2,5-cyclohexadien-1-one]	21.9	2.29	10.6	16.7	–	2.22	3.63	–	–	–	–
–	O=C1C=CC(O)(c2cnc3ccccc3c2)C=C1 [Q10, 4-(Quinolin-3-yl)-4-hydroxy-2,5-cyclohexadien-1-one]	15.8	1.07	10.2	9.66	3.13 (≈ 13.2 µM)	0.72	0.97	–	–	0.77	1.7
–	O=C1C=CC(O)(c2nccs2)C=C1 [Q14, 4-(Thiazol-2-yl)-4-hydroxy-2,5-cyclohexadien-1-one]	14.5	1.35	6.19	9.17	3.13 (≈ 16.2 µM)	0.618	0.719	–	–	–	–

SMILES	melting point [°C]	CC50 ([1]; 60 cell) [µM]	GI50 [1, 5] [µM]	LC50 (colon sub-panel) [µM]	mean LC50 (renal sub-panel) [µM]	MIC [2] [µg/mL]	IC50 (HCT 116 colon carcinoma) [µM]	IC50 (HT29 colon carcinoma) [µM]	GI50 ([1]; 60 cell, Table 5) [µM]	IC50 (A549 lung adenocarcinoma) [µM]	IC50 [3] [µM]	IC50 [4] [µM]
O=C1C=CC(O)(c2nc3ccccc3[nH]2)C=C1 [Q07, 4-(Benzimidazol-2-yl)-4-hydroxy-2,5-cyclohexadien-1-one]	234	–	1.1	–	–	3.13 (≈ 13.8 µM)	0.21	0.504	–	–	0.509	0.353
